Data from ChEMBL document CHEMBL1150799, “Vancomycin in vitro bactericidal activity and its relationship to efficacy in clearance of methicillin-resistant Staphylococcus aureus bacteremia” (2007).

System: Staphylococcus aureus
Assay: Antibacterial activity against methicillin-resistant Staphylococcus aureus assessed as bacterial killing at 16 ug/ml by serial dilution method after 24 hrs
Format: functional

`CN[C@H](CC(C)C)C(=O)N[C@H]1C(=O)N[C@@H](CC(N)=O)C(=O)N[C@H]2C(=O)N[C@H]3C(=O)N[C@H](C(=O)N[C@H](C(=O)O)c4cc(O)cc(O)c4-c4cc3ccc4O)[C@H](O)c3ccc(c(Cl)c3)Oc3cc2cc(c3O[C@@H]2O[C@H](CO)[C@@H](O)[C@H](O)[C@H]2O[C@H]2C[C@](C)(N)[C@H](O)[C@H](C)O2)Oc2ccc(cc2Cl)[C@H]1O` [VANCOMYCIN] showed a log10CFU/ml of 0.82.
